Results taken from publication PMC13083723 (Patterns, 2026).
Residues, ends and D or L forms follow the SMILES beside them. *: point of attachment. PhAc = O=C(Cc1ccccc1)*

Test system: Vero-E6 cells
Experiment: cells
Assay type: cell-based
Conditions: Chlorocebus sabaeus, Vero C1008, 24 h, read-out: PL_Result

| SMILES | activation at 10 µM |
| --- | --- |
| COc1ccccc1N1CCN(CCCCNC(=O)c2ccc3ccccc3c2)CC1 [SPE_K17378184] | 28.8% |
| C[C@H](NC(=O)/C(C#N)=C/c1ccc(O)c(O)c1)c1ccccc1 [SPE_K17415526] | -1.61% |
| O=C(NCCCN1CCOCC1)c1ccc(Cl)cc1 [SPE_K17979676] | -11.4% |
| CCCCC/C=C\C/C=C\C/C=C\CCCCC(=O)O [SPE_K18059238] | 1.69% |
| CC(C)CNc1nc(-c2cccc3ncccc23)cn2c(-c3ccc(C(=O)NC4CC4)cc3)cnc12 [SPE_K18530250] | -11.5% |
| C[C@]12CC[C@H](O)C[C@H]1CC[C@@H]1[C@@H]2C[C@@H](O)[C@]2(C)[C@@H](C3=CC(=O)OC3)CC[C@]12O [SPE_K18619710] | -13.9% |
| CCN(c1ccccc1)c1cc(NC)[n+](C)c(C)n1 [SPE_K18678457] | -5.38% |
| CN(C)C(=O)Oc1cccc([N+](C)(C)C)c1 [SPE_K18922609] | -9.73% |
| CS(=O)(=O)c1ccc(-c2cnc(NCc3ccco3)n3cnnc23)cc1 [SPE_K19002914] | 5.68% |
| CCN(CC)CCN(Cc1ccc(-c2ccc(C(F)(F)F)cc2)cc1)C(=O)Cn1c(SCc2ccc(F)cc2)nc(=O)c2c1CCC2 [SPE_K19085898] | -5.09% |
| CC(C)(Oc1ccc(Cl)cc1)C(=O)O [SPE_K19111024] | -0.104% |
| O=C1OC(c2ccc(O)cc2)(c2ccc(O)cc2)c2ccccc21 [SPE_K19227686] | 1.99% |
| Cc1cc(OCc2nc(-c3ccccc3Cl)cs2)ccc1OCC(=O)O [SPE_K19409553] | 5.84% |
| COc1nccc(-c2c(-c3ccc(F)cc3)ncn2C2CCNCC2)n1 [SPE_K19412355] | 14.6% |
| C[C@H](NC(=O)CNC(=O)c1cccc(Cl)c1)c1ccccc1 [SPE_K19482962] | -10.5% |
| Nc1nc(NCCc2ccc(O)cc2)nc2nc(-c3ccco3)nn12 [SPE_K19605405] | -2.19% |
| COc1ccc(S(=O)(=O)N2CCC[C@H]2C(=O)Nc2cc(C)cc(C)c2)cc1 [SPE_K19781342] | 0.676% |
| C[C@H](NC(=O)[C@@H](O)c1cc(F)cc(F)c1)C(=O)N[C@@H]1C(=O)N(C)c2ccccc2-c2ccccc21 [SPE_K20013301] | -13.5% |
| CN1C(=O)N(c2cc(Cl)cc(Cl)c2)C(=O)[C@]12CN(Cc1cc(C(=O)O)cs1)C[C@H]2c1ccc(C#N)cc1 [SPE_K20093108] | -2.08% |
| CCCCCCCCCCCCCCCCCCO [SPE_K20501889] | -5.89% |
| Cn1cc(C(=O)C(=O)N[C@H]2CN3CCC2CC3)c2ccccc21 [SPE_K20714604] | 10.1% |

| SMILES | activation at 10 µM |
| --- | --- |
| COc1cc(COc2cc(N)c(Cl)cc2C(=O)CCC2CCN(CCNS(C)(=O)=O)CC2)cc(OC)c1 [SPE_K20742498] | -9.12% |
| O[C@H]1[C@H](O)[C@@H](O)CN2CC[C@H](O)[C@H]12 [SPE_K20897876] | 7.21% |
| CNC(=O)c1ccccc1Nc1nc(Nc2ccc(N3CCOCC3)cc2OC)ncc1Cl [SPE_K21025364] | 15.8% |
| CCCCc1nc(C)c(CC(=S)N(C)C)c(=O)n1Cc1ccc(-c2ccccc2-c2nnn[nH]2)cc1 [SPE_K21586122] | -5.47% |
| Cc1csc(-c2nnc(Nc3ccc(Oc4ncccc4-c4ccnc(N)n4)cc3)c3ccccc23)c1 [SPE_K21728777] | -11.5% |
| Cn1cc(-c2ccc(F)c(C(F)(F)F)c2)nc1C1CCN(c2ncnc3[nH]ncc23)CC1 [SPE_K21833260] | -1.12% |
| CCOC(=O)c1ccccc1OC(N)=O [SPE_K21892374] | 3.89% |
| O=C1CCCN1CC#CCN1CCCC1 [SPE_K21936341] | -3.09% |
| O=C(O)c1cc(-c2ccc(F)cc2F)ccc1O [SPE_K22031190] | -7.97% |
| COc1ccc(C(=O)c2ccccc2O)c(O)c1 [SPE_K22193694] | -2.64% |
| CCOC(=O)CNC(=O)[C@@H]1CCCN1C(=O)Cc1ccccc1 [SPE_K22520627] (PhAc-Pro-Gly-OEt) | -4.57% |
| c1ccc2oc(C3=NCCN3)cc2c1 [SPE_K22745370] | -9.99% |
| Cc1cc(C)nc(NS(=O)(=O)c2ccc(NC(=S)NC(=O)COc3ccc(Br)cc3Cl)cc2)n1 [SPE_K22829793] | -2.21% |
| Cc1c(CN2CCN(C(=O)[C@H](C)O)CC2)sc2c(N3CCOCC3)nc(-c3cnc(N)nc3)nc12 [SPE_K23228615] | -5.95% |
| CCCCc1nc(Cl)c(C(=O)O)n1Cc1ccc(-c2ccccc2-c2nnn[nH]2)cc1 [SPE_K23533833] | 4.67% |
| COc1cccc([C@H](O)C2CCN(CCc3ccc(F)cc3)CC2)c1OC [SPE_K23647661] | -9.45% |
| CC(=O)O[C@H]1CC[C@@]2(C)C(=CC[C@@H]3[C@@H]2CC[C@]2(C)C(c4cccnc4)=CC[C@@H]32)C1 [SPE_K24048528] | -6.34% |
| Cn1c(=O)[nH]c2ncn(C)c2c1=O [SPE_K24084088] | -5.64% |
| COc1cc(/C=C/C(N)=O)cc(OC)c1OC [SPE_K24507548] | -1.45% |
| O=C(NC(=O)c1c(F)cccc1Cl)NC1c2ccccc2-c2ccccc21 [SPE_K24527118] | -7.81% |
